The structures appear in SMILES notation. Where a name gives a salt, the structure may show the parent alone.

Six compounds from publication PMC10342010, “Djakonoviosides A, A1, A2, B1–B4 — Triterpene Monosulfated Tetra- and Pentaosides from the Sea Cucumber Cucumaria djakonovi: The First Finding of a Hemiketal Fragment in the Aglycones; Activity against Human Breast Cancer Cell Lines” (International Journal of Molecular Sciences, 2023) can be followed below.

One series has as its system human erythrocytes. The series is described as follows: Hemolytic activity. It counts as cell-based. The conditions noted are these: for ED50, Erythrocytes: 1 h incubation at 37 °C, 50% hemolysis. As to the method:
Erythrocytes were obtained from human blood (AB(IV) Rh+) by centrifugation with phosphate-buffered saline (PBS) (pH 7.4) at 4 °C for 5 min by 450 g on a LABOFUGE 400R centrifuge (Heraeus, Hanau, Germany) three times. Then, the erythrocytes residue was resuspended in ice cold phosphate saline buffer (pH 7.4) to a final optical density of 1.5 at 700 nm and kept on ice. For the hemolytic assay, 180 µL of erythrocyte suspension was mixed with 20 µL of test compound solution, as well as control, chitonoidoside L [33], in V-bottom 96-well plates. After 1 h of incubation at 37 °C, the plates were exposed to centrifugation for 10 min at 900 g in a laboratory LMC-3000 centrifuge (Biosan, Riga, Latvia). Then, 100 µL of supernatant was carefully decanted and transferred into new flat plates. The values of the lysis of the erythrocytes were found by measuring the concentration of hemoglobin in the supernatant with a Multiskan FC microplate photometer (Thermo Fisher Scientific, Waltham, MA, USA); λ = 570 nm. […] All the experiments were carried out in triple repetitions; p < 0.01.

For series [1], the system named is MDA-MB-231 cells. Description: Colony formation (clonogenic) assay. Format: cell-based, human. The note with it: Homo sapiens; MDA-MB-231, concentration 2 μM; read-out: Inhibition of colony growth, % of the control. As to the method:
The influence of glycosides on the proliferation of MDA-MB-231 cells was analyzed by clonogenic assay. Briefly, MDA-MB-231 cells were cultured on 6-well plates at a density of 1 × 10^3 cells per well in control media (MEM media, 10% FBS, 10,000 U/mL of penicillin and 10,000 μg/mL of streptomycin) or in media supplemented with different concentrations of glycosides. Cells were incubated for one week at 37 °C with 5% CO2 until the cells in the control plates formed colonies that were visible to the eye and were of a substantial size (at least 50 cells per colony). For fixation and staining, the media were removed and the cells were washed twice with PBS. The colonies were fixed with methanol for 25 min, then washed with PBS and stained with 0.5% crystal violet solution for 25 min at room temperature. The plates were then washed with water and air dried.

The nature of series [2]: Cytotoxic activity (MTS assay). It counts as cell-based, human. The conditions noted are these: human. As to the method: Then, the cells were incubated with 10 µL MTS ([3-(4,5-dimethylthiazol-2-yl)-5-(3-carboxymethoxyphenyl)-2-(4-sulfophenyl)-2H-tetrazolium) for 4 h, and the absorbance in each well was determined at 490/630 nm with a PHERA star FS plate reader (BMG Labtech, Ortenberg, Germany). The experiments were conducted in triplicate.
(In general: Tetrazolium assays rely on reduction of a dye to a coloured formazan, in cell work by metabolically active cells.)

For series [3], the system named is MDA-MB-231 cells. Description: Wound scratch migration assay. It counts as cell-based, human. An excerpt:
To analyze the influence of the tested compounds on tumor cell migration, MDA-MB-231 cells attached to the plate’s plastic bottom were separated by a silicone insert from special migration plates (Culture-insert 2 Well 24, ibiTreat); then, the insert was removed, leaving a gap of 500 ± 50 μm (according to the manufacturer’s data) between the cells. The cells were washed twice by PBS to remove cell debris and floating cells and loaded with a fluorescent probe, a (5,6)-carboxyfluorescein succinimidyl ester (CFDA SE) dye (LumiTrace CFDA SE kit, Lumiprobe, Moscow, Russia). The initial solution of CFDA SE at a concentration of 5 mM in DMSO was dissolved in PBS to prepare a 10 μM solution and was added to the cells for 5 min at 37 °C; then, the cells were washed twice with PBS, and fresh culture medium was added. After that, the cells were treated with various concentrations of glycosides and left for 8 and 24 h. Cells treated with culture medium only were used as control. Cell migration into the wound area was then observed under a fluorescence microscope (MIB-2-FL, LOMO, Saint Peterburg, Russia) with an objective ×10 magnification.

Series [4] in a line: Cytotoxic activity (MTT assay). It counts as cell-based, human. The note with it: human. As to the method: (§1) After incubation, the glycosides with medium were replaced by 100 μL of fresh medium. Then, 10 μL of MTT (3-(4,5-dimethylthiazol-2-yl)-2,5-diphenyltetrazolium bromide) (Sigma-Aldrich, St. Louis, MO, USA) stock solution (5 mg/mL) was added to each well, followed by incubation of the microplate for 4 h. After this procedure, 100 μL of SDS-HCl solution (1 g SDS/10 mL d-H2O/17 μ[…] HCl) was added to each well and incubated for 18 h. The absorbance of the converted dye formazan was determined with a Multiskan FC microplate photometer (Thermo Fisher Scientific, Waltham, MA, USA) at 570 nm.

Series [5] in a line: Cytotoxic activity (MTT assay). Format: cell-based, human. The conditions noted are these: human. On the procedure: as §1
The source holds these as a separate data set.

Series [6] is described as follows: Cytotoxic activity (MTT assay). It counts as cell-based, human. The note with it: human. On the procedure: as §1
This is another data set of the same source.

Another series relates to cancer cell lines. Description: Cytotoxic action against cancer cell lines (summary in words). The note with it: cancer cell lines HL-60, MCF-7, T-47D, MDA-MB-231. It counts as cell-based, human. On the procedure: All the substances were tested in concentrations from 0.1 µM to 50 µM. Cisplatin was used as positive control. The cell suspension (180 µL) and solutions (20 µL) of tested glycosides in different concentrations were injected in wells of 96-well plates (MCF-7, T-47D, MDA-MB-231, and HEK293—7 × 10^3 cells/well) and incubated at 37 °C for 24 h in an atmosphere with 5% CO2. Glycosides 1 and 2, cucumarioside A0-1, and okhotoside A1-1 at concentrations of 1.25–10.0 μM were incubated with MDA-MB-231 cells at 37 °C for 24, 48, and 72 h in an atmosphere with 5% CO2. After incubation, the glycosides with medium were replaced by 100 µL of fresh medium. Then, 10 µL of MTT (3-(4,5-dimethylthiazol-2-yl)-2,5-diphenyltetrazolium bromide) (Sigma-Aldrich, St. Louis, MO, USA) stock solution (5 mg/mL) was added to each well, followed by incubation of the microplate for 4 h. After this procedure, 100 µL of SDS-HCl solution (1 g SDS/10 mL d-H2O/17 µL 6 N HCl) was added to each well and incubated for 18 h. The absorbance of the converted dye formazan was determined with a Multiskan FC microplate photometer (Thermo Fisher Scientific, Waltham, MA, USA) at 570 nm. […] The experiments were conducted in triplicate; p < 0.05.
Then, the cells were incubated with 10 µL MTS ([3-(4,5-dimethylthiazol-2-yl)-5-(3-carboxymethoxyphenyl)-2-(4-sulfophenyl)-2H-tetrazolium) for 4 h, and the absorbance in each well was determined at 490/630 nm with a PHERA star FS plate reader (BMG Labtech, Ortenberg, Germany). The experiments were conducted in triplicate. The results were presented as the percentage of inhibition that produced a reduction in absorbance after tested glycosides treatment compared to the nontreated cells (negative control); p < 0.01.

A short description of series [7]: Cytotoxic activity (MTT assay). Format: cell-based, human. The conditions noted are these: human. On the procedure: as §1
The source holds these as a separate data set.

On to `CO[C@@H]1[C@@H](O)[C@H](O[C@@H]2[C@@H](O)[C@H](O[C@H]3[C@H](O)[C@@H](O)[C@H](O[C@H]4[C@H](O[C@H]5CC[C@]6(C)[C@@H]7CCC89C(=O)O[C@@](C)([C@H](O)C(=O)CC(C)C)[C@H]8[C@@H](OC(C)=O)C[C@@]9(C)C7=CC[C@H]6C5(C)C)OC[C@@H](OS(=O)(=O)O)[C@@H]4O)O[C@@H]3C)OC[C@H]2O)O[C@H](CO)[C@H]1O` (stereo partly drawn) [djakonovioside A1 (2), 3β-O-[3-O-methyl-β-D-glucopyranosyl-(1→3)-β-D-xylopyranosyl-(1→4)-β-D-quinovopyranosyl-(1→2)-4-O-sodium sulfate-β-D-xylopyranosyl}-16β-acetoxy,22S-hydroxy,23-oxo-holost-7-en], for which the “ED50, Erythrocytes” value with human erythrocytes is recorded as 2.26 ± 0.25 µM. In the series on MDA-MB-231 cells [1], the inhibition at 2 µM turned out to be 19.2 ± 0.25%. This compound also registered an IC50 at 24 h in series [2] of 4.44 ± 0.37 µM. Also, in the series with MDA-MB-231 cells [3] (Homo sapiens, MDA-MB-231, 2 μM, 24 h incubation, read-out: Inhibition of migration as compared to control), the inhibition at 2 µM came to 79.5 ± 9.12%. Further, in series [4], the 50% effective concentration (EC50) at 48 h turned out to be 7.33 µM and the EC50 at 72 h turned out to be 6.25 µM.
As to `COC1C(O)C(CO)OC(OC2C(O)COC(OC3C(C)OC(OC4C(OC5CCC6(C)C7CCC89C(=O)OC%10(C)C(O)C(O)(CC(C)C)OC(CC8(C)C7=CCC6C5(C)C)C%109)OCC(OS(=O)(=O)O)C4O)C(O)C3O)C2O)C1O` [djakonovioside A2 (3), 3β-O-[3-O-methyl-β-D-glucopyranosyl-(1→3)-β-D-xylopyranosyl-(1→4)-β-D-quinovopyranosyl-(1→2)-4-O-sodium sulfate-β-D-xylopyranosyl}-22S-hydroxyholost-7-en-23R,16β-hemiketal], the “Hemolytic action (in words)” value in the series on human erythrocytes is reported as “moderately hemolytic”. In addition, the “ED50, Erythrocytes” value in the series on human erythrocytes is on record as 30.86 ± 0.97 µM. The IC50 at 24 h in series [5], in series [6], in series [2], in [4] and in [7] was more than 50 µM each time. In the series on cancer cell lines, the “Activity against cancer cells (in words)” value is “inactive”.
As for `CO[C@@H]1[C@@H](O)[C@H](O[C@@H]2[C@@H](O)[C@H](O[C@H]3[C@H](O)[C@@H](O)[C@H](O[C@H]4[C@H](O[C@H]5CC[C@]6(C)[C@@H]7CCC89C(=O)O[C@@](C)(C[C@@H](O)CC(C)C)[C@H]8[C@@H](OC(C)=O)C[C@@]9(C)C7=CC[C@H]6C5(C)C)OC[C@@H](OS(=O)(=O)O)[C@@H]4O)O[C@@H]3C)OC[C@H]2O)O[C@H](CO)[C@H]1O` (stereo partly drawn) [djakonovioside A (1), 3β-O-[3-O-methyl-β-D-glucopyranosyl-(1→3)-β-D-xylopyranosyl-(1→4)-β-D-quinovopyranosyl-(1→2)-4-O-sodium sulfate-β-D-xylopyranosyl}-16β-acetoxy,23S-hydroxyholost-7-en], in the series on human erythrocytes, the “ED50, Erythrocytes” value came to 2.46 ± 0.22 µM. In addition, the inhibition at 2 µM with MDA-MB-231 cells [1] amounted to 41.4 ± 3.16%. This compound registered an IC50 at 24 h in series [2] of 6.05 ± 0.17 µM. Moreover, the “Blockage of migration in relation to control” value with MDA-MB-231 cells [3] (MDA-MB-231, 1 μM, 24 h) is reported as 79.92 ± 0.27%. Moreover, in series [4], the EC50 at 48 h turned out to be 4.45 µM and the response was half-maximal at 3.77 µM (EC50 at 72 h).
For `CO[C@@H]1[C@@H](O)[C@H](O[C@@H]2[C@@H](O)[C@H](O[C@H]3[C@H](O)[C@@H](O[C@@H]4OC[C@@H](O)[C@H](O)[C@H]4O)[C@H](O[C@H]4[C@H](O[C@H]5CC[C@]6(C)[C@@H]7CCC89C(=O)O[C@@](C)([C@H](O)C(=O)CC(C)C)[C@H]8[C@@H](OC(C)=O)C[C@@]9(C)C7=CC[C@H]6C5(C)C)OC[C@@H](OS(=O)(=O)O)[C@@H]4O)O[C@@H]3C)OC[C@H]2O)O[C@H](CO)[C@H]1O` (stereo partly drawn) [djakonovioside B1 (4), 3β-O-{3-O-methyl-β-D-glucopyranosyl-(1→3)-β-D-xylopyranosyl-(1→4)-[(1→2)-β-D-xylopyranosyl]-β-D-quinovopyranosyl-(1→2)-4-O-sodium sulfate-β-D-xylopyranosyl}-16β-acetoxy,22S-hydroxy,23-oxo-holost-7-en], the “ED50, Erythrocytes” value in the series with human erythrocytes was 6.03 ± 0.47 µM. In addition, in [2], the IC50 at 24 h was 20.1 ± 0.8 µM.
For the compound `COC1C(O)C(CO)OC(OC2C(O)COC(OC3C(C)OC(OC4C(OC5CCC6(C)C7CCC89C(=O)OC%10(C)CC(O)(CC(C)C)OC(CC8(C)C7=CCC6C5(C)C)C%109)OCC(OS(=O)(=O)O)C4O)C(OC4OCC(O)C(O)C4O)C3O)C2O)C1O` [djakonovioside B2 (5), 3β-O-{3-O-methyl-β-D-glucopyranosyl-(1→3)-β-D-xylopyranosyl-(1→4)-[(1→2)-β-D-xylopyranosyl]-β-D-quinovopyranosyl-(1→2)-4-O-sodium sulfate-β-D-xylopyranosyl}-holost-7-en-23R,16β-hemiketal], in the series with human erythrocytes, the “Hemolytic action (in words)” value is reported as “moderately hemolytic” and the “ED50, Erythrocytes” value amounted to 16.34 ± 0.34 µM. Also, the IC50 at 24 h in series [2] came to 38.6 ± 1.05 µM. The “Activity against cancer cells (in words)” value with cancer cell lines was “inactive”.
For the compound `COC1C(O)C(CO)OC(OC2C(O)COC(OC3C(C)OC(OC4C(OC5CCC6(C)C7CCC89C(=O)OC%10(C)C(O)C(O)(CC(C)C)OC(CC8(C)C7=CCC6C5(C)C)C%109)OCC(OS(=O)(=O)O)C4O)C(OC4OCC(O)C(O)C4O)C3O)C2O)C1O` [djakonovioside B4 (7), 3β-O-{3-O-methyl-β-D-glucopyranosyl-(1→3)-β-D-xylopyranosyl-(1→4)-[(1→2)-β-D-xylopyranosyl]-β-D-quinovopyranosyl-(1→2)-4-O-sodium sulfate-β-D-xylopyranosyl}-22S-hydroxyholost-7-en-23R,16β-hemiketal], in the series on human erythrocytes, the “Hemolytic action (in words)” value was “moderately hemolytic”. In the series with human erythrocytes, the “ED50, Erythrocytes” value is 17.07 ± 1.15 µM. Further, the IC50 at 24 h in series [5], in series [6], in series [2], in [4] and in [7] was more than 50 µM throughout. Moreover, the “Activity against cancer cells (in words)” value with cancer cell lines is “inactive”.

What is called IC50 is the concentration that gives 50% inhibition. High values mean a need for much substance, low ones inhibition by little substance. The EC50 is the concentration needed to bring the measured effect to its halfway point.
